In patent publication US7491794B2, “Macrocyclic compounds as inhibitors of viral replication” (Intermune, Inc., priority 2003, dated 2009):
Where two headings read alike, the source gives them in different places.

Legend:
NS3-NS4 protease = target: T1, NS3-NS4 protease (Hepatitis C virus genotype 1a, UniProt P27958); test: NS3-NS4 protease assay / NS3 inhibition assay, Section D; format: biochemical
T1 construct: Recombinant E. coli or Baculovirus full-length NS3 was diluted to 3.33 μM with assay buffer; made in house; host or cells: E. coli or baculovirus (BV) system
T1 sequence (P27958 1027-1657): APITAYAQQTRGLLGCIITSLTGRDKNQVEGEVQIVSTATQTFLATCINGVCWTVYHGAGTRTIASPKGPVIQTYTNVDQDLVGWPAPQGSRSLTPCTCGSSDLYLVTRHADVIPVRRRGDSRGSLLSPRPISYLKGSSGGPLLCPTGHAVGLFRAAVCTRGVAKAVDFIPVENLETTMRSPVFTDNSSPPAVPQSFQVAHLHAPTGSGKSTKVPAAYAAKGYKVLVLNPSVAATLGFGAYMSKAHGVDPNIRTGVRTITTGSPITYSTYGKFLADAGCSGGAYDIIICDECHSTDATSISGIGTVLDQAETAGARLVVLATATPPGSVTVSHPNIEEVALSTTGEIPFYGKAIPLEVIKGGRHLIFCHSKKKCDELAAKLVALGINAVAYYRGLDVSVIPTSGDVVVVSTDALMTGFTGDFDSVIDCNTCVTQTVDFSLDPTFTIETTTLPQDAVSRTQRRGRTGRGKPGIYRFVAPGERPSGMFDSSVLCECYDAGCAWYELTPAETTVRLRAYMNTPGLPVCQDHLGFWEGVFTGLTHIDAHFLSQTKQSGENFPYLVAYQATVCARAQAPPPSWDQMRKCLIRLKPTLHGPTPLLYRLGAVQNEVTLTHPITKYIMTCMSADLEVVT
Experimental: NS3-NS4 Protease Assay NS3 complex formation with NS4A-2.
Recombinant E. coli or Baculovirus full-length NS3 was diluted to 3.33 μM with assay buffer and transferred material to an eppendorf tube and place in water bath in 4° C. refrigerator. The appropriate amount of NS4A-2 to 8.3 mM in assay buffer was added to equal the volume of NS3 in step 2.1.1 (conversion factor −3.8 mg/272 μL assay buffer). The material was transferred to an eppendorf tube and place in water bath in 4° C. refrigerator.
After equilibration to 4° C., equal volumes of NS3 and NS4A-2 solutions were combined in an eppendorf tube, mix gently with a manual pipettor, and incubate mixture for 15 minutes in the 4° C. water bath. Final concentrations in the mixture are 1.67 μM NS3, 4.15 mM NS4A-2 (2485-fold molar excess NS4A-2).
After 15 minutes at 4° C., the NS3/NS4A-2 eppendorf tube was removed and placed in a room temperature water bath for 10 minutes. NS3/NS4A-2 was alliquoted at appropriate volumes and store at −80° C. (E. coli NS3 run at 2 nM in assay, aliquot at 25 μL. BV NS3 run at 3 nM in assay, aliquot at 30 μL).
Sample compounds were dissolved to 10 mM in DMSO then diluted to 2.5 mM (1:4) in DMSO.
The E. coli. NS3/NS4A-2 was diluted to 4 nM NS3 (1:417.5 of 1.67 μM stock−18 μL 1.67 μM stock+7497 μL assay buffer).
The BV NS3/NS4A-2 was diluted to 6 nM NS3 (1:278.3 of 1.67 μM stock−24 μL 1.67 μM stock+6655 μL assay buffer).
Using the manual multichannel pipettor, careful not to introduce bubbles into the plate, add 50 μL assay buffer to wells A01-H01 of a black Costar 96-well polypropylene storage plate.
Using the manual multichannel pipettor, careful not to introduce bubbles into the plate, add 50 μL of diluted NS3/NS4A-2 from step 2.2.6 to wells A02-H12 of plate in step 2.2.7.
Using the manual multichannel pipettor, careful not to introduce bubbles into the plate, transfer 25 μL of the wells in drug dilution plate in step 2.2.5 to corresponding wells in assay plate in step 2.2.8. Change tips on multichannel pipettor for each row of compounds transferred.
Using the manual multichannel pipettor, careful not to introduce bubbles into the plate, mix the wells from the assay plate in step 2.2.9 by aspirating and dispensing 35 μL of the 75 μL in each well five times. Change tips on multichannel pipettor for each row of wells mixed.
Cover plate with a polystyrene plate lid and pre-incubate the plate from step 2.2.10 containing NS3 protease and sample compounds 10 minutes at room temperature.
While plate from step 2.2.11 is pre-incubating, dilute RETS1 substrate in a 15 mL polypropylene centrifuge tube.
Dilute RETS1 substrate to 8 μM (1:80.75 of 646 μM stock−65 μL 646 μM stock+5184 μL assay buffer).
After the plate in step is done pre-incubating, and using the manual multichannel, add 25 μL of substrate to all wells on the plate. Quickly mix the plate as in step 2.2.10, mixing 65 μL of the 100 μL in the wells.
Read the plate in kinetic mode on the Molecular Devices SpectraMax Gemini XS plate reader. Reader settings: Read time: 30 minutes, Interval: 36 seconds, Reads: 51, Excitation k: 335 nm, Emission k: 495 nm, cutoff: 475 nm, Automix: off, Calibrate: once, PMT: high, Reads/well: 6, Vmax pts: 21 or 28/51 depending on length of linearity of reaction.
IC50s are determined using a four parameter curve fit equation, and converted to Ki's using the following Km's:
where Ki=IC50/(1+[S]/Km))

NS3-NS4A protease = target: T2, NS3-NS4A protease (Hepatitis C virus genotype 1a, UniProt P27958); test: NS3-NS4A protease assay (NS3 inhibition assay, RETS1 substrate), Section B; format: biochemical; conditions: read-out: NS3-NS4A IC50
T2 construct: Recombinant E. coli or Baculovirus full-length NS3 was diluted to 3.33 μM with assay buffer; made in house; host or cells: E. coli or baculovirus (BV) system
T2 sequence (P27958 1027-1657): as above
Outline: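 Full-length NS3 (E. coli or baculovirus) precomplexed with excess NS4A-2 peptide, run at 2 nM (E. coli) or 3 nM (BV) NS3; compounds pre-incubated 10 min at room temperature before RETS1 substrate. Fluorescence (ex 335/em 495 nm) read kinetically 30 min; IC50 from four-parameter fit, converted to Ki via Ki=IC50/(1+[S]/Km).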

[1] = test system: HCV sub-genomic replicon, GS4.3; test: Quantitation by ELISA of NPTII in the HCV sub-genomic replicon, GS4.3, Section B; format: cell-based; conditions: Hepatitis C virus, read-out: Replicon EC50
Outline: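 GS4.3 cells (HuH-7 carrying HCV 1377/NS3-3′ replicon) were treated 72 h at 37 °C with inhibitors in 3-fold dilutions, 1% DMSO, no G418. Lysate NPTII was measured by ELISA (TMB, 450 nm). Signal as % of DMSO control; EC50 from 4-parameter fit.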

| Structure (SMILES) | IC50 (NS3-NS4 protease) [nM] | IC50 (NS3-NS4A protease) [nM] | EC50 ([1]; GS4.3 cells, 72 h incubation) [nM] | EC50 ([1]; 72 h) [nM] |
| --- | --- | --- | --- | --- |
| CC(C)(C)OC(=O)N[C@H]1CCCCC/C=C\[C@@H]2C[C@@]2(C(=O)O)NC(=O)[C@@H]2C[C@@H](NC(=O)c3ccc4cccnc4c3)CN2C1=O [Example 67] | < 10000 |  |  |  |
| CC(C)Nc1nc(C(=O)N[C@@H]2C[C@H]3C(=O)N[C@]4(C(=O)NS(=O)(=O)C5CC5)C[C@H]4/C=C\CCCCC[C@H](NC(=O)OC(C)(C)C)C(=O)N3C2)cs1 [Example 12] | < 100 |  |  |  |
| CC(C)(C)NC(=O)N[C@H]1CCCCC/C=C\[C@@H]2C[C@@]2(C(=O)O)NC(=O)[C@@H]2C[C@@H](OC(=O)N3Cc4ccccc4C3)CN2C1=O [AR00320078, (1S,4R,6S,14S,18R)-14-(3-tert-Butyl-ureido)-18-(1,3-dihydro-isoindole-2-carbonyloxy)-2,15-dioxo-3,16-diaza-tricyclo[14.3.0.0^4,6]nonadec-7-ene-4-carboxylic acid] |  | < 100 | < 10000 |  |
| COc1cccc(CC(=O)N[C@H]2CCCCC/C=C\[C@@H]3C[C@@]3(C(=O)NS(=O)(=O)C3CC3)NC(=O)[C@@H]3C[C@@H](OC(=O)N4Cc5cccc(F)c5C4)CN3C2=O)c1 [AR00340178, (1S,4R,6S,14S,18R)-4-Fluoro-1,3-dihydro-isoindole-2-carboxylic acid 4-cyclopropanesulfonylaminocarbonyl-14-[2-(3-methoxy-phenyl)-acetylamino]-2,15-dioxo-3,16-diaza-tricyclo[14.3.0.0^4,6]nonadec-7-en-18-yl ester] |  | < 100 | < 100 |  |
| CC(C)(C)NC(=O)N[C@H]1CCCCC/C=C\[C@@H]2C[C@@]2(C(=O)NS(=O)(=O)C2CC2)NC(=O)[C@@H]2C[C@@H](OC(=O)N3CCc4ccccc4C3)CN2C1=O [AR00320001, (1S,4R,6S,14S,18R)-3,4-Dihydro-1H-isoquinoline-2-carboxylic acid 14-(3-tert-butyl-ureido)-4-cyclopropanesulfonylaminocarbonyl-2,15-dioxo-3,16-diaza-tricyclo[14.3.0.0^4,6]nonadec-7-en-18-yl ester] |  | < 100 | < 100 |  |
| COc1ccc2c(c1)CN(C(=O)O[C@@H]1C[C@H]3C(=O)N[C@]4(C(=O)NS(=O)(=O)C5CC5)C[C@H]4/C=C\CCCCC[C@H](NC(=O)OC(C)(C)C)C(=O)N3C1)C2 [AR00334314, (1S,4R,6S,14S,18R)-5-Methoxy-1,3-dihydro-isoindole-2-carboxylic acid 14-tert-butoxycarbonylamino-4-cyclopropanesulfonylaminocarbonyl-2,15-dioxo-3,16-diaza-tricyclo[14.3.0.0^4,6]nonadec-7-en-18-yl ester] |  | < 100 | < 100 |  |
| O=C(NC1CCCC1)N[C@H]1CCCCC/C=C\[C@@H]2C[C@@]2(C(=O)NS(=O)(=O)C2CC2)NC(=O)[C@@H]2C[C@@H](OC(=O)N3Cc4cc(Cl)c(Cl)cc4C3)CN2C1=O [AR00320575, (1S,4R,6S,14S,18R)-5,6-Dichloro-1,3-dihydro-isoindole-2-carboxylic acid 14-(3-cyclopentyl-ureido)-4-cyclopropanesulfonylaminocarbonyl-2,15-dioxo-3,16-diaza-tricyclo[14.3.0.0^4,6]nonadec-7-en-18-yl ester] |  | < 100 | < 1000 |  |
| O=C(NC1CCCC1)N[C@H]1CCCCC/C=C\[C@@H]2C[C@@]2(C(=O)O)NC(=O)[C@@H]2C[C@@H](OC(=O)N3CCc4ccccc4C3)CN2C1=O [AR00294378, (1S,4R,6S,14S,18R)-14-(3-Cyclopentyl-ureido)-18-(3,4-dihydro-1H-isoquinoline-2-carbonyloxy)-2,15-dioxo-3,16-diaza-tricyclo[14.3.0.0^4,6]nonadec-7-ene-4-carboxylic acid] |  | < 1000 | < 10000 |  |
| O=C(N[C@H]1CCCCC/C=C\[C@@H]2C[C@@]2(C(=O)O)NC(=O)[C@@H]2C[C@@H](OC(=O)N3Cc4ccccc4C3)CN2C1=O)O[C@H]1CCOC1 [AR00320075, (1S,4R,6S,14S,18R)-18-(1,3-Dihydro-isoindole-2-carbonyloxy)-2,15-dioxo-14-(tetrahydro-furan-3S-yloxycarbonylamino)-3,16-diaza-tricyclo[14.3.0.0^4,6]nonadec-7-ene-4-carboxylic acid] |  | < 1000 | < 10000 |  |
| O=C(CCC(F)(F)F)N[C@H]1CCCCC/C=C\[C@@H]2C[C@@]2(C(=O)NS(=O)(=O)C2CC2)NC(=O)[C@@H]2C[C@@H](OC(=O)N3Cc4cccc(F)c4C3)CN2C1=O [AR00338071, (1S,4R,6S,14S,18R)-4-Fluoro-1,3-dihydro-isoindole-2-carboxylic acid 4-cyclopropanesulfonylaminocarbonyl-2,15-dioxo-14-(4,4,4-trifluoro-butyrylamino)-3,16-diaza-tricyclo[14.3.0.0^4,6]nonadec-7-en-18-yl ester] |  | < 100 | < 100 |  |
| CC(C)(C)NC(=O)N[C@H]1CCCCC/C=C\[C@@H]2C[C@@]2(C(=O)NS(=O)(=O)C2CC2)NC(=O)[C@@H]2C[C@@H](OC(=O)N3Cc4cc(Cl)c(Cl)cc4C3)CN2C1=O [AR00320447, (1S,4R,6S,14S,18R)-5,6-Dichloro-1,3-dihydro-isoindole-2-carboxylic acid 14-(3-tert-butyl-ureido)-4-cyclopropanesulfonylaminocarbonyl-2,15-dioxo-3,16-diaza-tricyclo[14.3.0.0^4,6]nonadec-7-en-18-yl ester] |  | < 100 | < 1000 |  |
| CC(C)S(=O)(=O)NC(=O)[C@@]12C[C@H]1/C=C\CCCCC[C@H](NC(=O)OC(C)(C)C)C(=O)N1C[C@H](OC(=O)N3CCc4ccccc4C3)C[C@H]1C(=O)N2 [AR00261407, (1S,4R,6S,14S,18R)-3,4-Dihydro-1H-isoquinoline-2-carboxylic acid 14-tert-butoxycarbonylamino-2,15-dioxo-4-(propane-2-sulfonylaminocarbonyl)-3,16-diaza-tricyclo[14.3.0.0^4,6]nonadec-7-en-18-yl ester] |  | < 100 |  | < 1000 |
| O=C(CC1CCCC1)N[C@H]1CCCCC/C=C\[C@@H]2C[C@@]2(C(=O)NS(=O)(=O)C2CC2)NC(=O)[C@@H]2C[C@@H](OC(=O)N3Cc4ccc(Cl)cc4C3)CN2C1=O [AR00334226, (1S,4R,6S,14S,18R)-5-Chloro-1,3-dihydro-isoindole-2-carboxylic acid 14-(2-cyclopentyl-acetylamino)-4-cyclopropanesulfonylaminocarbonyl-2,15-dioxo-3,16-diaza-tricyclo[14.3.0.0^4,6]nonadec-7-en-18-yl ester] |  | < 100 | < 100 |  |
| O=C(NC1CCCC1)N[C@H]1CCCCC/C=C\[C@@H]2C[C@@]2(C(=O)NS(=O)(=O)C2CC2)NC(=O)[C@@H]2C[C@@H](OC(=O)N3Cc4ccccc4C3)CN2C1=O [AR00304082, (1S,4R,6S,14S,18R)-1,3-Dihydro-isoindole-2-carboxylic acid 14-(3-cyclopentyl-ureido)-4-cyclopropanesulfonylaminocarbonyl-2,15-dioxo-3,16-diaza-tricyclo[14.3.0.0^4,6]nonadec-7-en-18-yl ester] |  | < 100 | < 100 |  |
